# Biological target: T1, ORL-1 receptor (Homo sapiens, UniProt P41146)
# T1 construct: expressed in transfected cells; host or cells: CHO cells (membrane preparation)
# Assay: Nociceptin binding assay
# Conditions: CHO cell membrane preparation expressing the ORL-1 receptor; [125I][Tyr14]nociceptin
# Procedure: CHO cell membrane preparation expressing the ORL-1 receptor (2 mg) was incubated with varying concentrations of [^125I][Tyr ^14]nociceptin (3-500 pM) in a buffer containing 50 mM HEPES (pH7.4), 10 mM NaCl, 1 mM MgCl2, 2.5 mM CaCl2, 1 mg/ml bovine serum albumin and 0.025% bacitracin. In a number of studies, assays were carried out in buffer 50 mM tris-HCl (pH 7.4), 1 mg/ml bovine serum albumin and 0.025% bacitracin. Samples were incubated for 1 h at room temperature (22° C.). Radiolabelled ligand bound to the membrane was harvested over GF/B filters presoaked in 0.1% polyethyleneimine using a Brandell cell harvester and washed five times with 5 ml cold distilled water. Nonspecific binding was determined in parallel by similar assays performed in the presence of 1 μM nociceptin. All assay points were performed in duplicates of total and non-specific binding.
# Calculations of Ki were made using methods well known in the art.
# T1 sequence (P41146 whole entry): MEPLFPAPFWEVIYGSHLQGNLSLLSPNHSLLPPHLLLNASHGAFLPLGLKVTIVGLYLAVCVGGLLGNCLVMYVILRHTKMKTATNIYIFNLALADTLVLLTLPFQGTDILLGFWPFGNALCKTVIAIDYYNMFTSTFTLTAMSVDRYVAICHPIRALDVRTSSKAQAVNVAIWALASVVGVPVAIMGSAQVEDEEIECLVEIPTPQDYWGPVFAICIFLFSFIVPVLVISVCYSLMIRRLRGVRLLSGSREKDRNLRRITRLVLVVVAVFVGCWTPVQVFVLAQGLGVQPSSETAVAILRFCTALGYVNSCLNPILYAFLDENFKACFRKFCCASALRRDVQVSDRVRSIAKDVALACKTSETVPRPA
row,SMILES,Ki
1,"CCc1cnc(C2(O)CC3CCC(C2)N3C(c2ccccc2Cl)c2ccccc2Cl)nc1 (centres unmarked) [Example 2, 8-[Bis(2-chlorophenyl)methyl]-3-(5-ethyl-2-pyrimidinyl)-8-azabicyclo[3.2.1]octan-3-ol]",7.6 nM
2,"OC1(c2nccc(N3CCNCC3)n2)CC2CCC(C1)N2C(c1ccccc1Cl)c1ccccc1Cl (centres unmarked) [Example 3, 8-[Bis(2-chlorophenyl)methyl]-3-[4-(1-piperazinyl)-2-pyrimidinyl]-8-azabicyclo[3.2.1]octan-3-ol]",4 nM
3,"OC1(c2ccccn2)CC2CCC(C1)N2C(c1ccccc1Cl)c1ccccc1Cl (centres unmarked) [Example 4, 8-[Bis(2-Chlorophenyl)methyl]-3-(2-pyridinyl)-8-azabicyclo[3.2.1]octan-3-ol]",4 nM
4,"COC1(c2ncccn2)CC2CCC(C1)N2C(c1ccccc1Cl)c1ccccc1Cl (centres unmarked) [Example 6, 8-[Bis(2-chlorophenyl)methyl]-3-methoxy-3-(2-pyrimidinyl)-8-azabcyclo[3.2.1]octane]",5.4 nM
5,"Cn1nccc1C1(O)CC2CCC(C1)N2C(c1ccccc1Cl)c1ccccc1Cl (centres unmarked) [Example 8, 8-[Bis(2-chlorophenyl)methyl]-3-(1-methyl-pyrazol-5-yl)-8-azabicyclo[3.2.1]octan-3-ol]",6 nM
6,"OC1(c2cccnn2)CC2CCC(C1)N2C(c1ccccc1Cl)c1ccccc1Cl (centres unmarked) [Example 11, 8-[Bis(2-chlorophenyl)methyl]-3-(3-pyridazinyl)-8-azabicyclo[3.2.1]octan-3-ol]",7 nM
7,"OC1(c2cnccn2)CC2CCC(C1)N2C(c1ccccc1Cl)c1ccccc1Cl (centres unmarked) [Example 12, 8-[Bis(2-chlorophenyl)methyl]-3-(2-pyrazinyl)-8-azabicyclo[3.2.1]octan-3-ol]",2 nM
8,"OC1(c2ccc(Br)cn2)CC2CCC(C1)N2C(c1ccccc1Cl)c1ccccc1Cl (centres unmarked) [Example 14, 8-[Bis(2-chlorophenyl)methyl]-3-(5-bromo-2-pyridinyl)-8-azabicyclo[3.2.1]octan-3-ol]",1.3 nM
